These are literature values, as cited in patent US20090280177A1, “Pharmaceutical preparation for treating fibromyalgia” (priority 2006, published 2009).

For one data set, the system named is T cell-dependent antigen. The note with it: dose-dependent manner.
For data set [1], the system named is T cell-independent antigen.
In data set [2] the test system is peripheral blood-adhesive cells from chronic rheumatoid arthritis patients.
In another data set the test system is T cells. The following applies: dose-dependent manner.

Molecules are shown by their SMILES.

Take `O=C(O)c1cc(/N=N/c2ccc(S(=O)(=O)Nc3ccccn3)cc2)ccc1O` [salazosulfapyridine, 2-Hydroroxy-5-[4-(pyridine-2-ylsulfamoyl)phenylazo] benzoic acid]: the “immune response to a T cell-dependent antigen” value in the data set on T cell-dependent antigen was “suppressed”. In addition, in data set [1], the “immune response to a T cell-independent antigen” value is reported as “hardly suppressed”. The “production of IL-1 and IL-6” value in data set [2] is “suppress”. The IL-2 production result with T cells is recorded as “suppress”.
